The values below come from US20240279202A1 (NURIX THERAPEUTICS, INC., priority 2021, published 2024).

For this assay, the target named is T1, ITK (Homo sapiens, UniProt Q08881).
T1 sequence (Q08881 1-620): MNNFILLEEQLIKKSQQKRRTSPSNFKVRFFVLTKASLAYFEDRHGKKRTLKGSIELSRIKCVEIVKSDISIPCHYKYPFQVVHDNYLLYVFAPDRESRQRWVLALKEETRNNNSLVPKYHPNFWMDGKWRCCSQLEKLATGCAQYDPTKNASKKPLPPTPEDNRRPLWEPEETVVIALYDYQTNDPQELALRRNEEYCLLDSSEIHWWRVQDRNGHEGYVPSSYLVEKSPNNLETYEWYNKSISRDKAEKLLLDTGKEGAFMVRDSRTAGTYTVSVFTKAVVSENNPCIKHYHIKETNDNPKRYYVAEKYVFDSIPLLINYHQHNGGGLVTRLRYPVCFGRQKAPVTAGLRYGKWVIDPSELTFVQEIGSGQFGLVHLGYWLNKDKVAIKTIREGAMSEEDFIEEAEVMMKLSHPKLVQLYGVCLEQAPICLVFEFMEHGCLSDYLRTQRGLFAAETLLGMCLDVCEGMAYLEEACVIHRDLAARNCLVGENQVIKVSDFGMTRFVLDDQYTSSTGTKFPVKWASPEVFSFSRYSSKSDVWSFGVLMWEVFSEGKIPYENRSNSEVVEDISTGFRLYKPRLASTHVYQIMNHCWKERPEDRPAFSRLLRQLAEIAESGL
The assay is described as follows: ITK degradation HiBiT assay. It is filed as cell-based. Details: expressed in transfected cells; host or cells: Molt4 (ATCC CRL-1552), monoclonal clone 1C10, engineered to carry the HiBiT tag. The settings on record: 4 hrs; for Dmax: MOLT-4, C-terminal HiBiT-tagged Molt4 cells. Summed up:
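C-terminal HiBiT-tagged Molt4 cells (clone 1C10) treated 4 h at 32° C with an 11-point, 5-fold compound dilution series (0.5% DMSO). HiBiT lytic detection with LgBiT then luminescence read; % ITK remaining versus concentration fit by four-parameter variable-slope model to give DC50 and Dmax.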
Background: The HiBiT peptide binds its large partner to form an active luciferase.

Where [1] appears, read: C-terminal HiBiT-tagged Molt4 cells.

Structures can show the parent of a compound that is named as a salt.

For `CN(c1ccc2cc(-c3n[nH]c4c3C[C@@H]3C(F)(F)[C@]3(C)C4)[nH]c2c1)C(=O)[C@H]1C[C@]2(CCN(c3ccc4c(c3)C(=O)N([C@H]3CCC(=O)NC3=O)C4=O)C2)C1` (racemic) [Compound 71b, (2s,4s)-N-[2-[(4aS,5aR)-5,5-difluoro-5a-methyl-1H,4H,4aH,6H-cyclopropa[f]indazol-3-yl]-1H-indol-6-yl]-6-[2-[(3RS)-2,6-dioxopiperidin-3-yl]-1,3-dioxoisoindol-5-yl]-N-methyl-6-azaspiro[3.4]octane-2-carboxamide], the Dmax (in general, the largest share of the target that was removed) turned out to be 85%. In addition, it took 2 nM to reach half-maximal degradation under setting [1] (DC50).
For `CN(C(=O)CC[C@H]1CCN(c2ccc3c(c2)C(=O)N(C2CCC(=O)NC2=O)C3=O)C1)c1ccc2cc(-c3n[nH]c4c3C[C@@H]3C(F)(F)[C@]3(C)C4)[nH]c2c1` (stereo in doubt) [Compound 67, N-(2-((4aS,5aR)-5,5-difluoro-5a-methyl-1,4,4a,5,5a,6-hexahydrocyclopropafindazol-3-yl)-1H-indol-6-yl)-3-((3R)-1-(2-(2,6-dioxopiperidin-3-yl)-1,3-dioxoisoindolin-5-yl)pyrrolidin-3-yl)-N-methylpropanamide], in that order: 75% and 2.3 nM.
`CN(C(=O)CC[C@H]1CCN(c2ccc3c(c2)C(=O)N(C2CCC(=O)NC2=O)C3=O)C1)c1ccc2cc(-c3n[nH]c4c3C[C@@H]3C(F)(F)[C@]3(C)C4)[nH]c2c1` (stereo in doubt) [Compound 68]: under setting [1], the DC50 (usually the concentration giving 50% degradation) is 0.5 nM and the “HiBiT DMax (%)” value amounted to 78%.
In turn, `CN(C(=O)CCC1CCN(c2ccc3c(c2)C(=O)N(C2CCC(=O)NC2=O)C3=O)C1)c1ccc2cc(-c3n[nH]c4c3CCC(C)(C)C4)[nH]c2c1` (stereo not shown) [Compound 1, N-(2-(6,6-dimethyl-4,5,6,7-tetrahydro-1H-indazol-3-yl)-1H-indol-6-yl)-3-(1-(2-(2,6-dioxopiperidin-3-yl)-1,3-dioxoisoindolin-5-yl)pyrrolidin-3-yl)-N-methylpropanamide] had a Dmax of 88%. The DC50 under setting [1] turned out to be 10.4 nM.
For `CN(C(=O)CCN1CCN(c2ccc3c(c2)C(=O)N(C2CCC(=O)NC2=O)C3=O)CC1)c1ccc2cc(-c3n[nH]c4c3CCC(C)(C)C4)[nH]c2c1` (stereo not shown) [Compound 2, N-(2-(6,6-dimethyl-4,5,6,7-tetrahydro-1H-indazol-3-yl)-1H-indol-6-yl)-3-(4-(2-(2,6-dioxopiperidin-3-yl)-1,3-dioxoisoindolin-5-yl)piperazin-1-yl)-N-methylpropanamide], in that order: 90% and 4.4 nM.
Consider `C[C@@H](C(=O)N(C)c1ccc2cc(-c3n[nH]c4c3CCC(C)(C)C4)[nH]c2c1)N1CCN(CC2CCN(c3cccc4c3n(C)c(=O)n4C3CCC(=O)NC3=O)CC2)CC1` (stereo partly drawn) [Compound 3, (2S)—N-(2-(6,6-dimethyl-4,5,6,7-tetrahydro-1H-indazol-3-yl)-1H-indol-6-yl)-2-(4-((1-(1-(2,6-dioxopiperidin-3-yl)-3-methyl-2-oxo-2,3-dihydro-1H-benzo[d]imidazol-4-yl)piperidin-4-yl)methyl)piperazin-1-yl)-N-methylpropanamide], for which the Dmax was 76%. Under setting [1], the DC50 stood at 0.29 nM.
Consider `C[C@@H](C(=O)N(C)c1ccc2cc(-c3n[nH]c4c3CCC(C)(C)C4)[nH]c2c1)N1CCN(C[C@@H]2CCN(c3ccc4c(c3)n(C)c(=O)n4C3CCC(=O)NC3=O)C2)CC1` (stereo partly drawn) [Compound 4, (2S)—N-(2-(6,6-dimethyl-4,5,6,7-tetrahydro-1H-indazol-3-yl)-1H-indol-6-yl)-2-(4-(((3S)-1-(1-(2,6-dioxopiperidin-3-yl)-3-methyl-2-oxo-2,3-dihydro-1H-benzo[d]imidazol-5-yl)pyrrolidin-3-yl)methyl)piperazin-1-yl)-N-methylpropanamide], for which the Dmax turned out to be 64%. This compound showed a DC50 under setting [1] of 2.3 nM.
`C[C@@H](C(=O)N(C)c1ccc2cc(-c3n[nH]c4c3CCC(C)(C)C4)[nH]c2c1)N1CCN(C[C@H]2CCN(c3ccc4c(c3)n(C)c(=O)n4C3CCC(=O)NC3=O)C2)CC1` (stereo partly drawn) [Compound 5, (2S)—N-(2-(6,6-dimethyl-4,5,6,7-tetrahydro-1H-indazol-3-yl)-1H-indol-6-yl)-2-(4-(((3R)-1-(1-(2,6-dioxopiperidin-3-yl)-3-methyl-2-oxo-2,3-dihydro-1H-benzo[d]imidazol-5-yl)pyrrolidin-3-yl)methyl)piperazin-1-yl)-N-methylpropanamide]: the greatest degradation seen (Dmax) was found to be 74%. In addition, the DC50 under setting [1] turned out to be 1.3 nM.
`C[C@@H](C(=O)N(C)c1ccc2cc(-c3n[nH]c4c3C[C@@H]3C(F)(F)[C@]3(C)C4)[nH]c2c1)N1CCN(C[C@H]2CCN(c3ccc4c(c3)C(=O)N(C3CCC(=O)NC3=O)C4=O)C2)CC1` (stereo partly drawn) [Compound 9, (2S)—N-(2-((4aS,5aR)-5,5-difluoro-5a-methyl-1,4,4a,5,5a,6-hexahydrocyclopropa[f]indazol-3-yl)-1H-indol-6-yl)-2-(4-(((3R)-1-(2-(2,6-dioxopiperidin-3-yl)-1,3-dioxoisoindolin-5-yl)pyrrolidin-3-yl)methyl)piperazin-1-yl)-N-methylpropanamide] had a Dmax of 85%. Further, the DC50 under setting [1] is 0.21 nM.
On to `C[C@@H](C(=O)N(C)c1ccc2cc(-c3n[nH]c4c3CCC(C)(C)C4)[nH]c2c1)N1CCN(CC2CCN(c3ccc(C4CCC(=O)NC4=O)cn3)CC2)CC1` (stereo partly drawn) [Compound 10, (2S)—N-(2-(6,6-dimethyl-4,5,6,7-tetrahydro-1H-indazol-3-yl)-1H-indol-6-yl)-2(4-((1-(5-(2,6-dioxopiperidin-3-yl)pyridin-2-yl)piperidin-4-yl)methyl)piperazin-1-yl)-N-methylpropanamide], for which the DC50 under setting [1] stood at 0.48 nM.
Same read-out and setting: for `C[C@@H](C(=O)N(C)c1ccc2cc(-c3n[nH]c4c3CCC(C)(C)C4)[nH]c2c1)N1CCN(CC2CCN(c3ccc(N4CCC(=O)NC4=O)cn3)CC2)CC1` [Compound 11, (S)—N-(2-(6,6-dimethyl-4,5,6,7-tetrahydro-1H-indazol-3-yl)-1H-indol-6-yl)-2-(4-((1-(5-(2,4-dioxotetrahydropyrimidin-1(2H)-yl)pyridin-2-yl)piperidin-4-yl)methyl)piperazin-1-yl)-N-methylpropanamide] the value was 2 nM.
Compound `C[C@@H](C(=O)N(C)c1ccc2cc(-c3n[nH]c4c3CCC(C)(C)C4)[nH]c2c1)N1CCN(C[C@H]2CCN(c3ccc4c(c3)CN(C3CCC(=O)NC3=O)C4=O)C2)CC1` (stereo partly drawn) [Compound 12, (2S)—N-(2-(6,6-dimethyl-4,5,6,7-tetrahydro-1H-indazol-3-yl)-1H-indol-6-yl)-2-(4-(((3R)-1-(2-(2,6-dioxopiperidin-3-yl)-1-oxoisoindolin-5-yl)pyrrolidin-3-yl)methyl)piperazin-1-yl)-N-methylpropanamide] came in with a Dmax of 86%. In addition, the DC50 under setting [1] is 0.29 nM.
For `Cn1c(=O)n(C2CCC(=O)NC2=O)c2cccc(N3CCC(CN4CCC5(CC4)CCN(c4ccc6cc(-c7n[nH]c8c7CCC(C)(C)C8)[nH]c6c4)C5=O)CC3)c21` (stereo not shown) [Compound 13, 3-(4-(4-((2-(2-(6,6-dimethyl-4,5,6,7-tetrahydro-1H-indazol-3-yl)-1H-indol-6-yl)-1-oxo-2,8-diazaspiro[4.5]decan-8-yl)methyl)piperidin-1-yl)-3-methyl-2-oxo-2,3-dihydro-1H-benzo[d]imidazol-1-yl)piperidine-2,6-dione], in that order: 90% and 2.4 nM.
For `Cn1c(=O)n(C2CCC(=O)NC2=O)c2ccc(N3CCC(CN4CCC5(CC4)CCN(c4ccc6cc(-c7n[nH]c8c7CCC(C)(C)C8)[nH]c6c4)C5=O)CC3)cc21` (stereo not shown) [Compound 14, 3-(5-(4-((2-(2-(6,6-dimethyl-4,5,6,7-tetrahydro-1H-indazol-3-yl)-1H-indol-6-yl)-1-oxo-2,8-diazaspiro[4.5]decan-8-yl)methyl)piperidin-1-yl)-3-methyl-2-oxo-2,3-dihydro-1H-benzo[d]imidazol-1-yl)piperidine-2,6-dione], in that order: 89% and 0.16 nM.
`C[C@@]12Cc3[nH]nc(-c4cc5ccc(N6CCC7(CCN(Cc8ccc9c(c8)C(=O)N(C8CCC(=O)NC8=O)C9=O)CC7)C6=O)cc5[nH]4)c3C[C@@H]1C2(F)F` (stereo partly drawn) [Compound 15, 5-((2-(2-((4aS,5aR)-5,5-difluoro-5a-methyl-1,4,4a,5,5a,6-hexahydrocyclopropa[f]indazol-3-yl)-1H-indol-6-yl)-1-oxo-2,8-diazaspiro[4.5]decan-8-yl)methyl)-2-(2,6-dioxopiperidin-3-yl)isoindoline-1,3-dione hydrochloride] returned a Dmax of 93%. This compound also showed a DC50 under setting [1] of 0.35 nM.
